This experiment has as its target T1, Peroxisomal sarcosine oxidase (Homo sapiens) (UniProt Q9P0Z9).
T1 sequence (whole entry): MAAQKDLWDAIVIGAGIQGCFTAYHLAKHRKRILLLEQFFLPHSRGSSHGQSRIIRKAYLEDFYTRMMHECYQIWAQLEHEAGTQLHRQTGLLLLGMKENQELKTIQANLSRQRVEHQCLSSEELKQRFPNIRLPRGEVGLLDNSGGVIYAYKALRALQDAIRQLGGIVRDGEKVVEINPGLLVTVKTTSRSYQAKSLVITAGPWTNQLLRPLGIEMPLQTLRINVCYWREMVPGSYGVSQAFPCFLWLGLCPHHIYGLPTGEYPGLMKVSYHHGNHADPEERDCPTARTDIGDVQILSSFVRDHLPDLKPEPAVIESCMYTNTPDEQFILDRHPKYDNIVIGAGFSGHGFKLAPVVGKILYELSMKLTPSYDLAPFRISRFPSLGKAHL
Briefly: Kinetic parameter inactivation constant was determined on L-pipecolate oxidase from Rhesus monkey. The conditions noted are these: Cercopithecidae; target entry is the homologue from another species.

`O=C(O)[C@@H]1CCCCN1`: the Kiact came to 2 min⁻¹.
